Measurements as given in EP4652842A1, “BIOPESTICIDE COMPOSITION, PROCEDURE OF OBTAIN THEREOF, AND METHOD FOR CONTROLLING AND TREATING BROAD SPECTRUM OF PESTS, DISEASES AND WEEDS IN PLANTS” (priority 2024, dated 2025).
Where two headings read alike, the source gives them in different places.

Legend:
Assay type in all cases: in vivo
Tetranychus urticae [1] = assay: Antifeedant effects: settling inhibition and oviposition inhibition; details: T. urticae
Method: The concept of antifeedant as a substance that acts on insect behaviour involves feeding reduction (FR), settling inhibition (SI) and oviposition Inhibition (IO). In some cases, settling inhibition is considered as indirect repellent effect. […] It is based on the preference of target adults for treated and non-treated host plants located in the same entomological cages (in plant assays). The experiments were conducted in bugdorm®-type net cages (Figure 13). Four similar host plants (two leaf stage) were transferred to a same pot (Figure 14). Two of the plants were sprayed with biopesticide compositions and the others with the control and dried for 30 minutes. Target adults were released at the site that was equidistant from the two plants. A total of 5 cages for each treatment (four plants each) and control were used in each experiment and replicated 3 times in different days. […] After 24 hours, the number of settled adults in treated and non-treated plants and the number of laid eggs were recorded on the upper and underside of each leaf. Number of adults and eggs were counted under a stereomicroscope. […] T= Settling of treated plants; C= Setting of control plants. […] Means of %Sl and %IO were analysed for significance by the non-parametric Wilcoxon signed-rank test (p < 0.05).

Myzus persicae [2] = assay: Antifeedant effects: settling inhibition
Method: (§1) The concept of antifeedant as a substance that acts on insect behaviour involves feeding reduction (FR), settling inhibition (SI) and oviposition Inhibition (IO). In some cases, settling inhibition is considered as indirect repellent effect. […] It is based on the preference of target adults for treated and non-treated host plants located in the same entomological cages (in plant assays). The experiments were conducted in bugdorm®-type net cages (Figure 13). Four similar host plants (two leaf stage) were transferred to a same pot (Figure 14). Two of the plants were sprayed with biopesticide compositions and the others with the control and dried for 30 minutes. Target adults were released at the site that was equidistant from the two plants. A total of 5 cages for each treatment (four plants each) and control were used in each experiment and replicated 3 times in different days. […] After 24 hours, the number of settled adults in treated and non-treated plants and the number of laid eggs were recorded on the upper and underside of each leaf. Number of adults and eggs were counted under a stereomicroscope. […] T= Settling of treated plants; C= Setting of control plants. Means of %Sl and %IO were analysed for significance by the non-parametric Wilcoxon signed-rank test (p < 0.05).

Bemisia tabaci [3] = assay: Antifeedant effects: settling inhibition
Method: as §1

Myzus persicae [4] = system: Myzus persicae
Method: (§2) The objective of this bioassay is to evaluate the effect of test items on the mortality of adult insects and mites in a short/medium-term (0-24 hours) by topical application. Tests were conducted in plastic net bottles. A total of 10 replicates for each treatment (tests items and negative control) were used in each experiment and temporarily replicated 3 times along the week. (Figure 12)
(§3) Numbers of live and dead adult insects and mites were counted at 24 h post-treatment. Adult insects and mites were considered dead if no movement was apparent after probing with the tip of a fine brush under stereoscopic magnifying glass. Mortality percentage was calculated in treatment and control groups. If the mortality in negative control is above 20% the test was discarded.
(§4) Means of %M were compared using a one-way analysis of variance (ANOVA, p<0.05) and LSD-test as a post hoc test to verify significant differences between single treatments using Statgraphics Centurion XVII software. When nonnormality in the data was detected, an additional Kruskal-Wallis test was conducted, and Box-and-Whisker Plot (Median Notch) was presented.
(§5) The different compositions were tested by trials that were carried out on different relevant insect pests and acari including: Tuta absoluta, Bemisia tabaci, Myzus persicae, Frankliniella occidentalis and Tetranychus urticae. The bioassay type used was contact mortality (Leaf Disc Method) described in the example 4.
(§6) The main treatments included in the comparison of efficacy are: Group A: Individual solvents: Benzyl alcohol, ethanol, isopropanol, and water were applied directly (purity as in the label) diluted at 0.3% (3cc/L) in water without formulation. Group B: Vegetable matrix extracts were extracted with different solvents such as benzyl alcohol, ethanol, isopropanol, and water.

Tetranychus urticae [5] = system: Tetranychus urticae
Method: as §2, §3, §4, §5, §6

Tuta absoluta [6] = system: Tuta absoluta
Method: as §2, §3, §4, §5, §6

[7] = system: Frankliniella occidentalis
Method: as §2, §3, §4, §5, §6

Bemisia tabaci [8] = system: Bemisia tabaci
Method: as §2, §3, §4, §5, §6

[9] = system: Frankliniella occidentalis; assay: Antifeedant effects: feeding reduction; details: F. occidentalis
Tuta absoluta [10] = assay: Antifeedant effects: feeding reduction
[11] = %SI settling inhibition index, at sublethal concentration 0.021 %
[12] = antifeedant/repellent, concentration under the lethal EC50
[13] = %FR feeding reduction index, at sublethal concentration 0.014 %

With `COC(=O)C=Cc1ccccc1` [Methyl cinnamate] the “%SI/ %FR” value (Tetranychus urticae [1]; [11]) was 20.0 ± 4.6%, the “Sublethal concentration (%)” value (Tetranychus urticae [1]; [12]) was 0.021% and the “%SI/ %FR” value (Myzus persicae [2]; %SI settling inhibition index, at sublethal concentration 0.014 %) was 17.9 ± 6.7%. The “Sublethal concentration (%)” value (Myzus persicae [2]; [12]) was 0.014%, the “%SI/ %FR” value (Bemisia tabaci [3]; [11]) was 14.4 ± 3.6% and the “Sublethal concentration (%)” value (Bemisia tabaci [3]; [12]) was 0.021%. For the same molecule, the “%M” value (Myzus persicae [4]; Myzus persicae, at sublethal concentration 0.014 %, Abbott's corrected) was 17.1 ± 4.7%, the “Sublethal concentration (%)” value (Myzus persicae [4]; Myzus persicae, contact mortality, concentration under the lethal EC50) was 0.014% and the “%M” value (Tetranychus urticae [5]; Tetranychus urticae, at sublethal concentration 0.021 %, Abbott's corrected) was 24.7 ± 6.9%. The “Sublethal concentration (%)” value (Tetranychus urticae [5]; Tetranychus urticae, contact mortality, concentration under the lethal EC50) was 0.021%, the “%M” value (Tuta absoluta [6]; Tuta absoluta, at sublethal concentration 0.021 %, Abbott's corrected) was 17.5 ± 5.9% and the “Sublethal concentration (%)” value (Tuta absoluta [6]; Tuta absoluta, contact mortality, concentration under the lethal EC50) was 0.021%. The “%M” value ([7]; Frankliniella occidentalis, at sublethal concentration 0.021 %, Abbott's corrected) was 25.6 ± 4.6%, the “Sublethal concentration (%)” value ([7]; Frankliniella occidentalis, contact mortality, concentration under the lethal EC50) was 0.021% and the “%M” value (Bemisia tabaci [8]; Bemisia tabaci, at sublethal concentration 0.014 %, Abbott's corrected) was 14.5 ± 9.8%. The “Sublethal concentration (%)” value (Bemisia tabaci [8]; Bemisia tabaci, contact mortality, concentration under the lethal EC50) was 0.014%, the “%SI/ %FR” value [9, 13] was 22.2 ± 2.1% and the “Sublethal concentration (%)” value [9, 12] was 0.014%. For the same molecule, the “%SI/ %FR” value (Tuta absoluta [10]; [13]) was 30.4 ± 5.7% and the “Sublethal concentration (%)” value (Tuta absoluta [10]; [12]) was 0.014%.

With `CC(C)=CCCC(C)=CC=O` [Citral] the “%M” value (Myzus persicae [4]; in vivo) was 30.2 ±5.8%, the “%M” value (Tetranychus urticae [5]; in vivo) was 16.9 ± 3.9% and the “%M” value (Tuta absoluta [6]; in vivo) was 0.0 ±0.0%. For the same molecule, the “%M” value ([7]; in vivo) was 27.8 ± 3.6% and the “%M” value (Bemisia tabaci [8]; in vivo) was 20.7 ±7.3%.
